Measured values from patent publication US5057493A, “Novel antibiotics R106” (priority 1988, dated 1991).
Starred links: 1 amine or outer side, 2 acyl side, 3 side chain; linkers in the order of their positions; H or OH if unused. Non-standard residues stand in square brackets, D forms with d. Residues, ends and D or L forms follow the SMILES beside them. ξ: configuration not given here. X2 = CN(C(C(=O)[*:2])C(O)c1ccccc1)[*:1]; X4 = CC(C(=O)O)C(C(=O)[*:2])N(C)[*:1]; ξNMeVal(3-OH) = CNC(C(=O)O)C(C)(C)O; X5 = CC(CO)C(C(=O)[*:2])N(C)[*:1]; X6 = CC(C)=C(C(=O)[*:2])N(C)[*:1]; NMeF = CN[CH](Cc1ccccc1)C(=O)O; X1 = CCC(C)C(O[*:1])C(=O)[*:2]; NMeV = CN[CH](C(=O)O)C(C)C; Hiv = CC(C)[CH](O)C(=O)O

Tests used:
Experiment in all cases: MIC by agar dilution method, casitone agar
Assay type in all cases: cell-based
Conditions in all cases: Table 5
[1] = tested on: Candida glabrata TIMM 1062
Experimental: (§1) The minimum inhibitory concentration (MIC) of each antibiotic against various fungi was determined by the agar dilution method using casitone agar medium (2.0% glucose, 0.9% bacto-casitone, 1.0% yeast extract, 0.1% KH2 PO4, 0.1% Na2 HPO4, 1.0% sodium citrate, 2.0% agar: concentrations are all by w/v).
(§2) Each minimum growth inhibitory concentration was determined after culturing at 27° C. for 4 days.

[2] = tested on: Cryptococcus neoformans TIMM 0354
Experimental: as §1, §2

[3] = tested on: Candida albicans TIMM 0136
Experimental: as §1, with “The antibiotics R106 of the present invention are active against various fungi including pathogenic fungi. The” for “The”

[4] = tested on: Candida albicans TIMM 0171
Experimental: as §1, with “The antibiotics R106 of the present invention are active against various fungi including pathogenic fungi. The” for “The”

[5] = tested on: Candida albicans TIMM 1768
Experimental: as §1, with “The antibiotics R106 of the present invention are active against various fungi including pathogenic fungi. The” for “The”

Candida kefyr TIMM 0301 = tested on: Candida kefyr TIMM 0301
Experimental: as §1, with “The antibiotics R106 of the present invention are active against various fungi including pathogenic fungi. The” for “The”

Row | minimum inhibitory concentration (MIC) [1] | minimum inhibitory concentration (MIC) [2] | minimum inhibitory concentration (MIC) [3] | minimum inhibitory concentration (MIC) [4] | minimum inhibitory concentration (MIC) [5] | minimum inhibitory concentration (MIC) (Candida kefyr TIMM 0301) | Compound
1 | > 25 | > 25 | 1.56 | 1.56 | 12.5 | > 25 | CCC(C)C1NC(=O)C2CCCN2C(=O)C(Cc2ccccc2)N(C)C(=O)C(Cc2ccccc2)NC(=O)C(C(C)C)N(C)C(=O)C(C(C)CC)OC(=O)C(C(C)C)NC(=O)C(CC(C)C)NC(=O)C(C(C)C)N(C)C1=O (stereo not drawn) [Compound 8] (cyclo([X1][NMeV]F[NMeF]PI[NMeV]LV); configuration not given here)
2 | > 25 | > 25 | 6.25 | 3.12 | 25 | 25 | CCC(C)C1NC(=O)C2CCCN2C(=O)C(Cc2ccccc2)N(C)C(=O)C(Cc2ccccc2)NC(=O)C(C(C)C)N(C)C(=O)C(C(C)CC)OC(=O)C(=C(C)C)N(C)C(=O)C(CC(C)C)NC(=O)C(C(C)C)N(C)C1=O (stereo not drawn) [Compound 18] (cyclo([X6][X1][NMeV]F[NMeF]PI[NMeV]L); configuration not given here)
3 | 1.56 | 25 | 0.78 | 0.39 | 0.39 | 0.39 | CCC(C)C1NC(=O)C2CCCN2C(=O)C(Cc2ccccc2)N(C)C(=O)C(Cc2ccccc2)NC(=O)C(C(C)C)N(C)C(=O)C(C(C)CC)OC(=O)C(C(C)(C)O)N(C)C(=O)C(CC(C)C)NC(=O)C(C(C)C)NC1=O (stereo not drawn) [Compound 6] (cyclo([ξNMeVal(3-OH)][X1][NMeV]F[NMeF]PIVL); configuration not given here)
4 | > 25 | > 25 | 6.25 | 6.25 | 25 | 12.5 | CCC(C)C1OC(=O)C(C(C)C)N(C)C(=O)C(CC(C)C)NC(=O)C(C(C)C)N(C)C(=O)C(C(C)C)NC(=O)C2CCCN2C(=O)C(Cc2ccccc2)N(C)C(=O)C(Cc2ccccc2)NC(=O)C(C(C)C)N(C)C1=O (stereo not drawn) [Compound 12] (cyclo([X1][NMeV]F[NMeF]PV[NMeV]L[NMeV]); configuration not given here)
5 | > 25 | 25 | 12.5 | 25 | 25 | > 25 | CCC(C)C1NC(=O)C2CCCN2C(=O)C(Cc2ccccc2)N(C)C(=O)C(Cc2ccccc2)NC(=O)C(C(C)C)N(C)C(=O)C(C(C)CC)OC(=O)C(C(O)c2ccccc2)N(C)C(=O)C(CC(C)C)NC(=O)C(C(C)C)N(C)C1=O (stereo not drawn) [Compound 15] (cyclo([X2][X1][NMeV]F[NMeF]PI[NMeV]L); configuration not given here)
6 | > 25 | > 25 | 6.25 | 12.5 | 12.5 | 25 | CCC(C)C1NC(=O)C2CCCN2C(=O)C(Cc2ccccc2)NC(=O)C(Cc2ccccc2)NC(=O)C(C(C)C)N(C)C(=O)C(C(C)CC)OC(=O)C(C(C)C)N(C)C(=O)C(CC(C)C)NC(=O)C(C(C)C)N(C)C1=O (stereo not drawn) [Compound 13] (cyclo([X1][NMeV]FFPI[NMeV]L[NMeV]); configuration not given here)
7 | 3.12 | 25 | 0.78 | 0.78 | 12.5 | 3.12 | CCC(C)C1NC(=O)C2CCCN2C(=O)C(Cc2ccccc2)N(C)C(=O)C(Cc2ccccc2)NC(=O)C(C(C)C)N(C)C(=O)C(C(C)CC)OC(=O)C(C(C)C(=O)O)N(C)C(=O)C(CC(C)C)NC(=O)C(C(C)C)N(C)C1=O (stereo not drawn) [Compound 10] (cyclo([X4][X1][NMeV]F[NMeF]PI[NMeV]L); configuration not given here)
8 | 1.56 | 25 | 0.20 | 0.10 | 0.39 | 0.78 | CCC(C)C1NC(=O)C2CCCN2C(=O)C(Cc2ccccc2)N(C)C(=O)C(Cc2ccccc2)NC(=O)C(C(C)C)N(C)C(=O)C(C(C)CC)OC(=O)C(C(C)CO)N(C)C(=O)C(CC(C)C)NC(=O)C(C(C)C)N(C)C1=O (stereo not drawn) [Compound 4] (cyclo([X5][X1][NMeV]F[NMeF]PI[NMeV]L); configuration not given here)
9 | > 25 | > 25 | 12.5 | 25 | > 25 | > 25 | CCC(C)C1NC(=O)C2CCCN2C(=O)C(Cc2ccccc2)N(C)C(=O)C(Cc2ccccc2)NC(=O)C(C(C)C)N(C)C(=O)C(C(C)CC)OC(=O)C(Cc2ccccc2)N(C)C(=O)C(CC(C)C)NC(=O)C(C(C)C)N(C)C1=O (stereo not drawn) [Compound 17] (cyclo([X1][NMeV]F[NMeF]PI[NMeV]L[NMeF]); configuration not given here)
10 | 0.20 | 1.56 | 0.10 | 0.10 | 1.56 | 0.20 | CCC(C)C1OC(=O)C(C(C)(C)O)N(C)C(=O)C(CC(C)C)NC(=O)C(C(C)C)N(C)C(=O)C(C(C)C)NC(=O)C2CCCN2C(=O)C(Cc2ccccc2)N(C)C(=O)C(Cc2ccccc2)NC(=O)C(C(C)C)N(C)C1=O (stereo not drawn) [Compound 3] (cyclo([ξNMeVal(3-OH)][X1][NMeV]F[NMeF]PV[NMeV]L); configuration not given here)
11 | > 25 | > 25 | 3.12 | 1.56 | 25 | 3.12 | CCC(C)C1NC(=O)C2CCCN2C(=O)C(Cc2ccccc2)N(C)C(=O)C(Cc2ccccc2)NC(=O)C(C(C)C)N(C)C(=O)C(C(C)CC)OC(=O)C(C(C)C)N(C)C(=O)C(CC(C)C)NC(=O)C(C(C)C)NC1=O (stereo not drawn) [Compound 16] (cyclo([X1][NMeV]F[NMeF]PIVL[NMeV]); configuration not given here)
12 | > 25 | > 25 | 1.56 | 1.56 | 1.56 | 6.25 | CCC(C)C1NC(=O)C2CCCN2C(=O)C(Cc2ccccc2)N(C)C(=O)C(Cc2ccccc2)NC(=O)C(C(C)C)N(C)C(=O)C(C(C)C)OC(=O)C(C(C)C)N(C)C(=O)C(CC(C)C)NC(=O)C(C(C)C)N(C)C1=O (stereo not drawn) [Compound 11] (cyclo(F[NMeF]PI[NMeV]L[NMeV][Hiv][NMeV]); configuration not given here)
